# Measurements taken from the NIST ThermoML archive (doi:10.1021/je3000469).
# Numbers after ± are expanded uncertainties.
# What was measured:
# [1] = molar heat capacity at constant pressure; wn = mass fraction of the nth substance listed; settings: 101 kPa, w1 = 0.561
# [2] = wn = mass fraction of the nth substance listed; settings: 101 kPa, w1 = 0.561; for viscosity: Capillary tube (Ostwald / Ubbelohde) method; for mass density: Vibrating tube method
smiles,measurement,setting,value
O=[N+]([O-])[O-].[Li+] [lithium nitrate] + O,molar heat capacity at constant pressure,"[1]; 253.2 K, Crystal of intercomponent compound 1, Small sample (50 mg) DSC",48.92 ± 4.9 J/K/mol
same,molar heat capacity at constant pressure,"[1]; 263.2 K, Crystal of intercomponent compound 1, Small sample (50 mg) DSC",50.15 ± 4.9 J/K/mol
same,molar heat capacity at constant pressure,"[1]; 273.2 K, Crystal of intercomponent compound 1, Small sample (50 mg) DSC",51.38 ± 5.2 J/K/mol
same,molar heat capacity at constant pressure,"[1]; 283.2 K, Crystal of intercomponent compound 1, Small sample (50 mg) DSC",52.61 ± 5.2 J/K/mol
same,molar heat capacity at constant pressure,"[1]; 288.2 K, Crystal of intercomponent compound 1, Small sample (50 mg) DSC",53.22 ± 5.2 J/K/mol
same,molar heat capacity at constant pressure,"[1]; 308.2 K, Liquid, hot wire method",89.52 ± 9.5 J/K/mol
same,molar heat capacity at constant pressure,"[1]; 313.2 K, Liquid, Small sample (50 mg) DSC",84.91 ± 8.6 J/K/mol
same,molar heat capacity at constant pressure,"[1]; 313.2 K, Liquid, hot wire method",89.52 ± 9.5 J/K/mol
same,molar heat capacity at constant pressure,"[1]; 318.2 K, Liquid, hot wire method",90.45 ± 9.5 J/K/mol
same,molar heat capacity at constant pressure,"[1]; 323.2 K, Liquid, Small sample (50 mg) DSC",85.22 ± 8.6 J/K/mol
same,molar heat capacity at constant pressure,"[1]; 323.2 K, Liquid, hot wire method",90.45 ± 9.5 J/K/mol
same,molar heat capacity at constant pressure,"[1]; 328.2 K, Liquid, hot wire method",91.06 ± 9.5 J/K/mol
same,molar heat capacity at constant pressure,"[1]; 333.2 K, Liquid, Small sample (50 mg) DSC",84.91 ± 8.6 J/K/mol
same,molar heat capacity at constant pressure,"[1]; 333.2 K, Liquid, hot wire method",91.68 ± 9.8 J/K/mol
same,molar heat capacity at constant pressure,"[1]; 338.2 K, Liquid, hot wire method",91.99 ± 9.8 J/K/mol
same,molar heat capacity at constant pressure,"[1]; 343.2 K, Liquid, Small sample (50 mg) DSC",85.22 ± 8.6 J/K/mol
same,molar heat capacity at constant pressure,"[1]; 343.2 K, Liquid, hot wire method",92.29 ± 9.8 J/K/mol
same,molar heat capacity at constant pressure,"[1]; 348.2 K, Liquid, hot wire method",93.22 ± 9.8 J/K/mol
same,molar heat capacity at constant pressure,"[1]; 353.2 K, Liquid, Small sample (50 mg) DSC",84.91 ± 8.6 J/K/mol
same,molar heat capacity at constant pressure,"[1]; 353.2 K, Liquid, hot wire method",94.45 ± 10 J/K/mol
same,thermal conductivity,"[2]; 253.2 K, Crystal of intercomponent compound 1, Hot disk method",0.76 ± 0.15 W/m/K
same,thermal conductivity,"[2]; 263.2 K, Crystal of intercomponent compound 1, Hot disk method",0.74 ± 0.15 W/m/K
same,thermal conductivity,"[2]; 273.2 K, Crystal of intercomponent compound 1, Hot disk method",0.77 ± 0.15 W/m/K
same,thermal conductivity,"[2]; 283.2 K, Crystal of intercomponent compound 1, Hot disk method",0.76 ± 0.15 W/m/K
same,thermal conductivity,"[2]; 293.2 K, Crystal of intercomponent compound 1, Hot disk method",0.75 ± 0.15 W/m/K
same,thermal conductivity,"[2]; 294.2 K, Crystal of intercomponent compound 1, Hot disk method",0.82 ± 0.16 W/m/K
same,viscosity,"[2]; 308.2 K, Liquid",5.34 ± 0.11 mPa·s
same,mass density,"[2]; 308.2 K, Liquid",1425 ± 14 kg/m3
same,thermal conductivity,"[2]; 308.2 K, Liquid, hot wire",0.584 ± 0.059 W/m/K
same,viscosity,"[2]; 313.2 K, Liquid",4.8 ± 0.1 mPa·s
same,mass density,"[2]; 313.2 K, Liquid",1420 ± 14 kg/m3
same,thermal conductivity,"[2]; 313.2 K, Liquid, hot wire",0.581 ± 0.059 W/m/K
same,viscosity,"[2]; 318.2 K, Liquid",4.37 ± 0.09 mPa·s
same,mass density,"[2]; 318.2 K, Liquid",1413 ± 14 kg/m3
same,thermal conductivity,"[2]; 318.2 K, Liquid, hot wire",0.587 ± 0.06 W/m/K
same,viscosity,"[2]; 323.2 K, Liquid",3.96 ± 0.08 mPa·s
same,mass density,"[2]; 323.2 K, Liquid",1408 ± 14 kg/m3
same,thermal conductivity,"[2]; 323.2 K, Liquid, hot wire",0.583 ± 0.059 W/m/K
same,viscosity,"[2]; 328.2 K, Liquid",3.6 ± 0.08 mPa·s
same,mass density,"[2]; 328.2 K, Liquid",1402 ± 14 kg/m3
same,thermal conductivity,"[2]; 328.2 K, Liquid, hot wire",0.585 ± 0.059 W/m/K
same,viscosity,"[2]; 333.2 K, Liquid",3.31 ± 0.07 mPa·s
same,mass density,"[2]; 333.2 K, Liquid",1395 ± 14 kg/m3
same,thermal conductivity,"[2]; 333.2 K, Liquid, hot wire",0.588 ± 0.06 W/m/K
same,viscosity,"[2]; 338.2 K, Liquid",3.06 ± 0.06 mPa·s
same,mass density,"[2]; 338.2 K, Liquid",1390 ± 14 kg/m3
same,thermal conductivity,"[2]; 338.2 K, Liquid, hot wire",0.588 ± 0.06 W/m/K
same,viscosity,"[2]; 343.2 K, Liquid",2.84 ± 0.06 mPa·s
same,mass density,"[2]; 343.2 K, Liquid",1384 ± 14 kg/m3
same,thermal conductivity,"[2]; 343.2 K, Liquid, hot wire",0.588 ± 0.06 W/m/K
same,viscosity,"[2]; 348.2 K, Liquid",2.63 ± 0.06 mPa·s
same,mass density,"[2]; 348.2 K, Liquid",1378 ± 14 kg/m3
same,thermal conductivity,"[2]; 348.2 K, Liquid, hot wire",0.595 ± 0.06 W/m/K
same,viscosity,"[2]; 353.2 K, Liquid",2.46 ± 0.05 mPa·s
same,mass density,"[2]; 353.2 K, Liquid",1372 ± 14 kg/m3
same,thermal conductivity,"[2]; 353.2 K, Liquid, hot wire",0.611 ± 0.062 W/m/K
